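Five concentrations, 48 hours, 96-well plates. The concentration for 50% growth inhibition is given as GI50. TGI marks complete inhibition of growth.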
Legend:
Assay in all cases: NCI tumour cell line growth inhibition, 48 h
CCRF-CEM leukemia = system: CCRF-CEM leukemia
HT29 colon = system: HT29 colon
M14 melanoma = system: M14 melanoma
MCF7 breast = system: MCF7 breast
OVCAR-8 ovarian = system: OVCAR-8 ovarian
SF-539 CNS = system: SF-539 CNS
SK-MEL-28 melanoma = system: SK-MEL-28 melanoma
SK-OV-3 ovarian = system: SK-OV-3 ovarian
BT-549 breast = system: BT-549 breast

## O=C1c2ccccc2C(=O)N1CCc1ncc[nH]1
CCRF-CEM leukemia
  TGI: > 100 µM
HT29 colon
  TGI: > 100 µM
M14 melanoma
  TGI: > 100 µM
MCF7 breast
  TGI: > 100 µM
OVCAR-8 ovarian
  TGI: > 100 µM
SF-539 CNS
  TGI: > 100 µM
SK-MEL-28 melanoma
  TGI: > 100 µM

## O=C(O)CCSC(=O)Nc1ccc([N+](=O)[O-])cc1
CCRF-CEM leukemia
  TGI: > 100 µM
HT29 colon
  TGI: > 100 µM
M14 melanoma
  TGI: > 100 µM
OVCAR-8 ovarian
  TGI: > 100 µM
SF-539 CNS
  TGI: > 100 µM
SK-MEL-28 melanoma
  TGI: > 100 µM

## COc1ccc2c(c1)[n+](=O)c(C(=O)C/C(=N/OCCCc1ccccc1)C(=O)NC13CC4CC(CC(C4)C1)C3)c(C)n2[O-]
CCRF-CEM leukemia
  TGI: > 100 µM
HT29 colon
  TGI: > 100 µM
M14 melanoma
  TGI: > 100 µM
OVCAR-8 ovarian
  TGI: > 100 µM
SF-539 CNS
  TGI: > 100 µM
SK-MEL-28 melanoma
  TGI: > 100 µM
SK-OV-3 ovarian
  TGI: > 100 µM

## Nc1cccc(S(=O)(=O)NCC(=O)O)c1
CCRF-CEM leukemia
  TGI: > 100 µM
HT29 colon
  TGI: > 100 µM
M14 melanoma
  TGI: > 100 µM
OVCAR-8 ovarian
  TGI: > 100 µM
SF-539 CNS
  TGI: > 100 µM
SK-MEL-28 melanoma
  TGI: > 100 µM
SK-OV-3 ovarian
  TGI: > 100 µM

## COC1(OC)CC2OC1C1N=NN(C(=O)OC(C)(C)C)C21 (centres undefined)
CCRF-CEM leukemia
  TGI: > 100 µM
HT29 colon
  TGI: > 100 µM
M14 melanoma
  TGI: > 100 µM
SF-539 CNS
  TGI: > 100 µM
SK-MEL-28 melanoma
  TGI: > 100 µM
SK-OV-3 ovarian
  TGI: > 100 µM

## CC(=O)OCC1OC(NC(=S)N/N=C2\CC(c3ccccc3)Oc3ccccc32)C(OC(C)=O)C(OC(C)=O)C1OC(C)=O (centres undefined)
CCRF-CEM leukemia
  TGI: > 100 µM
HT29 colon
  TGI: > 100 µM
M14 melanoma
  TGI: > 100 µM
OVCAR-8 ovarian
  TGI: > 100 µM
SF-539 CNS
  TGI: > 100 µM
SK-OV-3 ovarian
  TGI: > 100 µM

## O=C1NC(=O)C(CCC(=O)c2ccc3ccccc3c2)C(=O)N1
CCRF-CEM leukemia
  TGI: > 100 µM
HT29 colon
  TGI: > 100 µM
M14 melanoma
  TGI: > 100 µM
OVCAR-8 ovarian
  TGI: > 100 µM
SF-539 CNS
  TGI: > 100 µM
SK-MEL-28 melanoma
  TGI: > 100 µM
SK-OV-3 ovarian
  TGI: > 100 µM

## CCCC1N2CCCCC2[C@@H]2c3[nH]c4ccccc4c3CCN12 (some centres undefined)
CCRF-CEM leukemia
  TGI: > 100 µM
HT29 colon
  TGI: > 100 µM
M14 melanoma
  TGI: > 100 µM
OVCAR-8 ovarian
  TGI: > 100 µM
SF-539 CNS
  TGI: > 100 µM
SK-MEL-28 melanoma
  TGI: > 100 µM
SK-OV-3 ovarian
  TGI: > 100 µM

## O=C(CC1(O)C(=O)Nc2ccccc21)c1ccncc1 (centres undefined)
CCRF-CEM leukemia
  TGI: > 100 µM
HT29 colon
  TGI: > 100 µM
M14 melanoma
  TGI: > 100 µM
SF-539 CNS
  TGI: > 100 µM
SK-MEL-28 melanoma
  TGI: > 100 µM
SK-OV-3 ovarian
  TGI: > 100 µM

## CCc1ccccc1NC(=O)C1=C(C)NC(C)=C(C(=O)Nc2ccccc2CC)C1c1ccc2c(c1)OCO2
CCRF-CEM leukemia
  TGI: 84.4 µM
HT29 colon
  TGI: > 100 µM
M14 melanoma
  TGI: > 100 µM
OVCAR-8 ovarian
  TGI: > 100 µM
SF-539 CNS
  TGI: 45.8 µM
SK-MEL-28 melanoma
  TGI: > 100 µM
SK-OV-3 ovarian
  TGI: > 100 µM

## COc1ccc(NC(=O)CC(=O)N/N=C/c2ccc(N(CCC#N)S(C)(=O)=O)cc2)cc1
CCRF-CEM leukemia
  TGI: > 100 µM
HT29 colon
  TGI: > 100 µM
M14 melanoma
  TGI: > 100 µM
OVCAR-8 ovarian
  TGI: > 100 µM
SF-539 CNS
  TGI: > 100 µM
SK-MEL-28 melanoma
  TGI: > 100 µM
SK-OV-3 ovarian
  TGI: > 100 µM

## CCN(CC)C(c1ccc(N(C)C)cc1)C(c1ccc(N(C)C)cc1)N(CC)CC (centres undefined)
CCRF-CEM leukemia
  TGI: > 73 µM
HT29 colon
  TGI: > 73 µM
M14 melanoma
  TGI: > 73 µM
OVCAR-8 ovarian
  TGI: > 73 µM
SF-539 CNS
  TGI: > 73 µM
SK-MEL-28 melanoma
  TGI: > 73 µM
SK-OV-3 ovarian
  TGI: > 73 µM

## CCOC(=O)/C(C#N)=C/c1[nH]c(C(=O)OCc2ccccc2)c(C)c1C
CCRF-CEM leukemia
  TGI: > 100 µM
HT29 colon
  TGI: > 100 µM
M14 melanoma
  TGI: > 100 µM
OVCAR-8 ovarian
  TGI: > 100 µM
SF-539 CNS
  TGI: > 100 µM
SK-MEL-28 melanoma
  TGI: > 100 µM
SK-OV-3 ovarian
  TGI: > 100 µM

## Cc1ccc(NC(=O)CC(=O)n2nc(C)c(N=Nc3ccccc3C(=O)O)c2C)cc1
CCRF-CEM leukemia
  TGI: > 100 µM
HT29 colon
  TGI: > 100 µM
M14 melanoma
  TGI: > 100 µM
OVCAR-8 ovarian
  TGI: > 100 µM
SF-539 CNS
  TGI: > 100 µM
SK-MEL-28 melanoma
  TGI: > 100 µM
SK-OV-3 ovarian
  TGI: > 100 µM

## COCCCNC(=O)C1C(=O)C(=O)N(CCCOC)C1=O (centres undefined)
CCRF-CEM leukemia
  TGI: > 100 µM
HT29 colon
  TGI: > 100 µM
M14 melanoma
  TGI: > 100 µM
OVCAR-8 ovarian
  TGI: > 100 µM
SF-539 CNS
  TGI: > 100 µM
SK-MEL-28 melanoma
  TGI: > 100 µM
SK-OV-3 ovarian
  TGI: > 100 µM

## C/C(O)=C(\N=O)C(=O)Nc1ccc(Cl)cc1Cl
CCRF-CEM leukemia
  TGI: > 100 µM
HT29 colon
  TGI: > 100 µM
M14 melanoma
  TGI: > 100 µM
OVCAR-8 ovarian
  TGI: > 100 µM
SF-539 CNS
  TGI: > 100 µM
SK-MEL-28 melanoma
  TGI: > 100 µM
SK-OV-3 ovarian
  TGI: > 100 µM

## C/C(CC(=O)Nc1cc(C)ccc1C)=N\NC(=O)c1ccncc1
CCRF-CEM leukemia
  TGI: > 100 µM
HT29 colon
  TGI: > 100 µM
M14 melanoma
  TGI: > 100 µM
OVCAR-8 ovarian
  TGI: > 100 µM
SF-539 CNS
  TGI: > 100 µM
SK-MEL-28 melanoma
  TGI: > 100 µM
SK-OV-3 ovarian
  TGI: > 100 µM

## NC1=NC(c2ccccc2)CC(c2cc(Cl)ccc2O)=N1 (centres undefined)
CCRF-CEM leukemia
  TGI: 51.8 µM
HT29 colon
  TGI: 32.1 µM
M14 melanoma
  TGI: 30.5 µM
OVCAR-8 ovarian
  TGI: 29.8 µM
SF-539 CNS
  TGI: 28.5 µM
SK-MEL-28 melanoma
  TGI: 33.5 µM
SK-OV-3 ovarian
  TGI: 33 µM

## O=C(Nc1ccc(-c2nc(N3CCOCC3)c3cccn3n2)cc1)Nc1cccnc1
BT-549 breast
  GI50: 0.145 µM
  TGI: 0.951 µM
CCRF-CEM leukemia
  GI50: 0.0547 µM
  TGI: > 100 µM
HT29 colon
  GI50: 0.3 µM
  TGI: > 100 µM
MCF7 breast
  GI50: 0.0483 µM
  TGI: 1.49 µM
OVCAR-8 ovarian
  GI50: 0.0491 µM
  TGI: > 100 µM
SF-539 CNS
  GI50: 0.0396 µM
  TGI: 0.296 µM
SK-OV-3 ovarian
  GI50: 0.0987 µM
  TGI: 0.596 µM

## COc1ccc2nc3c(C(=O)NCCN(C)C)cccc3nc2c1
CCRF-CEM leukemia
  TGI: > 100 µM
HT29 colon
  TGI: 28.8 µM
M14 melanoma
  TGI: 19.5 µM
OVCAR-8 ovarian
  TGI: > 100 µM
SF-539 CNS
  TGI: 10.9 µM
SK-MEL-28 melanoma
  TGI: 26.1 µM
SK-OV-3 ovarian
  TGI: 47.4 µM

## NC(=O)COC(=O)c1c(Cl)nc2sccn12
CCRF-CEM leukemia
  TGI: > 31.6 µM
HT29 colon
  TGI: > 100 µM
M14 melanoma
  TGI: > 100 µM
OVCAR-8 ovarian
  TGI: > 100 µM
SF-539 CNS
  TGI: > 100 µM
SK-MEL-28 melanoma
  TGI: > 100 µM
SK-OV-3 ovarian
  TGI: > 100 µM

## CCC[CH2][Sn]1([CH2]CCC)[O]C(=O)CN=Cc2c(ccc3ccccc23)[O]1
HT29 colon
  GI50: 1.08 µM
  TGI: 2.36 µM
M14 melanoma
  GI50: 0.367 µM
  TGI: 1.34 µM
OVCAR-8 ovarian
  GI50: > 100 µM
  TGI: > 100 µM
SF-539 CNS
  GI50: 1.51 µM
  TGI: > 100 µM
SK-MEL-28 melanoma
  GI50: 0.363 µM
  TGI: 1.13 µM
SK-OV-3 ovarian
  GI50: 1.11 µM
  TGI: 2.31 µM

## NC(=S)N1N=C2c3ccccc3CC[C@@H]2[C@@H]1c1ccccc1
CCRF-CEM leukemia
  TGI: 62.3 µM
HT29 colon
  TGI: 15.6 µM
M14 melanoma
  TGI: 31.1 µM
OVCAR-8 ovarian
  TGI: 72.3 µM
SF-539 CNS
  TGI: 22.3 µM
SK-OV-3 ovarian
  TGI: 33.9 µM

## Cc1cc(Cl)cc2c1NC(=O)C2(O)CC(=O)c1ccco1 (centres undefined)
BT-549 breast
  TGI: > 100 µM
CCRF-CEM leukemia
  TGI: 57.3 µM
HT29 colon
  TGI: > 100 µM
M14 melanoma
  TGI: > 100 µM
OVCAR-8 ovarian
  TGI: > 100 µM
SF-539 CNS
  TGI: > 100 µM
SK-MEL-28 melanoma
  TGI: > 100 µM
SK-OV-3 ovarian
  TGI: > 100 µM

## O=C1CCC2(c3ccccc3)Nc3ccncc3N12 (centres undefined)
BT-549 breast
  TGI: > 10 µM
CCRF-CEM leukemia
  TGI: > 10 µM
HT29 colon
  TGI: > 10 µM
M14 melanoma
  TGI: > 10 µM
MCF7 breast
  TGI: > 10 µM
OVCAR-8 ovarian
  TGI: > 10 µM
SF-539 CNS
  TGI: > 10 µM
SK-OV-3 ovarian
  TGI: > 10 µM

## Nc1c(-c2ccc(Cl)cc2)[n+]([O-])c2ccccc2[n+]1[O-]
CCRF-CEM leukemia
  TGI: > 100 µM
HT29 colon
  TGI: > 100 µM
M14 melanoma
  TGI: > 100 µM
OVCAR-8 ovarian
  TGI: > 100 µM
SF-539 CNS
  TGI: > 100 µM
SK-MEL-28 melanoma
  TGI: > 100 µM
SK-OV-3 ovarian
  TGI: > 100 µM

## Cn1c2ccccc2c2ccc3c(c21)C(=O)c1ccccc1C3=O
BT-549 breast
  TGI: 50.9 µM
CCRF-CEM leukemia
  TGI: 13.1 µM
HT29 colon
  TGI: 39.5 µM
M14 melanoma
  TGI: 83 µM
OVCAR-8 ovarian
  TGI: 61.6 µM
SF-539 CNS
  TGI: 41.2 µM
SK-MEL-28 melanoma
  TGI: 29.4 µM
SK-OV-3 ovarian
  TGI: 61.9 µM

From PubChem BioAssay (NCI)
